{
  "source": "patent US11612601B1",
  "about": "“Targeting epidermal growth factor to treat vascular calcification” (THE FLORIDA INTERNATIONAL UNIVERSITY BOARD OF TRUSTEES, priority 2022, dated 2023)",
  "key": {"CKD mice [1]": {"tested_on": "CKD mice", "assay": "Kidney renal fibrosis marker qRT-PCR and H&E histology in CKD mice", "format": "in vivo, mouse", "method": "To assess histological changes in kidneys due to renal injury, Hematoxylin and Eosin (H&E) staining was performed. The kidneys resected from the mice were fixed using formalin (10%) for three hours. Tissues were embedded using Tissue-Plus OCT (Fisher Scientific, 23-730-571). The samples were cryosectioned with a thickness of 12 μm and stained using rapid chrome H&E staining kit (Thermo Scientific, 9990001).\nTo isolate RNA from the resected kidneys, the tissues were homogenized using a grinder (Sigma, Z529672) and lysed in 1 mL TRIzol solution. After 10 min incubation at room temperature, the samples were centrifuged at 12,000×g for 10 min at 4° C. The supernatants were collected and 200 μL of chloroform (Sigma Aldrich, C2432) were added to each sample. The samples were vortexed, incubated at room temperature for 10 min, and centrifuged for 15 min at 12,000×g, 4° C. The aqueous phase was collected from each sample and 500 μL of isopropanol was added; the samples were vortexed, incubated for 15 min at room temperature following by 15 min on ice, and centrifuged at 21,000×g for 15 min. The supernatants were discarded, and pellets were washed twice with 500 μL cold ethanol (75% v/v) and centrifuged at 21,000×g for 5 min. The isolated RNA templates were heated at 65° for 15 min, and the concentrations were measured using a spectrophotometer (NanoDrop Lite, Thermo scientific). Power SYBR Green RNA-to-CT 1-Step Kit with 100 ng isolated template RNA per reaction was used.\nThe following mouse primer sequences were purchased from Eurofins Scientific; Gapdh Forward: AACGACCCCTTCATTGAC (SEQ ID NO: 9) and Reverse: TCCACGACATACTCAGCAC (SEQ ID NO: 10); Colla1 Forward: […] (SEQ ID NO: 11) and Reverse: […] (SEQ ID NO: 12); Tgfb1 Forward: […] (SEQ ID NO: 13) and Reverse: CAGCAGCCGGTTACCAAG (SEQ ID NO: 14)."}, "CKD mice [2]": {"tested_on": "CKD mice", "assay": "EVs isolated from mouse aortas: CAV1 immunoblot and TNAP activity", "format": "in vivo", "conditions": "CKD mice treated vs CKD", "method": "Immediately after scanning, the tissue was incubated in a digestive solution of sucrose (0.25 M, Sigma, S7903), NaCl (0.12 M, Fisher Chemical, BP358), KCl (0.01 M, Fisher Chemical, P217), Tris hydrochloride (0.02 M, Fisher Chemical, BP153), and collagenase (600 U/mL, Worthington Biochemical, LS004174) for 2 hours at 37° C. The solution was then centrifuged at 1,000×g for 15 min to remove cell debris and at 33,000×g for 30 min to remove microvesicles. Finally, the supernatants were ultracentrifuged (Beckman Coulter, Optima MAX-TL) at 100,000×g for 1 hour to isolate the EVs of interest. The pellet was suspended in RIPA lysis and extraction buffer (G Biosciences, 786-489) supplemented with pierce protease inhibitor (Thermo Scientific, A32963). To yield sufficient protein concentration for analysis, EVs isolated from 2 to 3 aortas were pooled.\nFor EV TNAP activity measurement, after ultracentrifugation at 100,000×g for 1 hour, the pellets were re-suspended in 120 μL buffer assay. […]\nTo quantify the total protein, the membranes were stained using 2% w/v Ponceau stain (Alfa Aesar, AAJ6074409) for 20 min, followed by one wash with 5% acetic acid and milliQ water for 5 min. After imaging, the intensity of each lane was measured in ImageJ for total protein normalization. […] The protein bands were visualized with Odyssey CLx scanner (Li-Cor), and quantified using Image Studio Lite software (Li-Cor)."}},
  "data": [
    {"smiles": "COc1cc2ncnc(Nc3cccc(Cl)c3)c2cc1OC", "note": "[AG1478, tyrphostin AG1478]", "values": [
      {"measurement": "expression of common markers of renal injury", "setting": "CKD mice [1]; CKD mice", "result": "does not reduce"},
      {"measurement": "Gene expression of renal fibrosis marker Colla1", "setting": "CKD mice [1]; kidney, CKD mice treated vs CKD, p=0.6", "result": "no significant differences"},
      {"measurement": "Gene expression of renal fibrosis marker Tgfb1", "setting": "CKD mice [1]; kidney, CKD mice treated vs CKD, p=0.7", "result": "no significant differences"},
      {"measurement": "CAV1 protein on EVs isolated from aortas", "setting": "CKD mice [2]; p<0.0001", "result": "significantly lower"},
      {"measurement": "TNAP activity of EVs isolated from aortas", "setting": "CKD mice [2]; p=0.003", "result": "significantly lower"}
    ]}
  ]
}
